Test results reported in US10202354B2, “Therapeutic compounds and uses thereof” (GENENTECH, INC., priority 2015, dated 2019).

These compounds were tested against Full length KDM2B (Homo sapiens (Human), UniProt Q8NHM5) (assay: KDM2B TR-FRET Assay for Determining Inhibitor IC50). Details: TR-FRET (HTRF), biotin-H3K36me2 peptide substrate.
Assay type: biochemical
Source text: KDM2B TR-FRET Assay for Determining Inhibitor IC50
The KDM2B TR-FRET Assay described above represents an additional embodiment of the invention.

Chain of Full length KDM2B (Q8NHM5 whole entry): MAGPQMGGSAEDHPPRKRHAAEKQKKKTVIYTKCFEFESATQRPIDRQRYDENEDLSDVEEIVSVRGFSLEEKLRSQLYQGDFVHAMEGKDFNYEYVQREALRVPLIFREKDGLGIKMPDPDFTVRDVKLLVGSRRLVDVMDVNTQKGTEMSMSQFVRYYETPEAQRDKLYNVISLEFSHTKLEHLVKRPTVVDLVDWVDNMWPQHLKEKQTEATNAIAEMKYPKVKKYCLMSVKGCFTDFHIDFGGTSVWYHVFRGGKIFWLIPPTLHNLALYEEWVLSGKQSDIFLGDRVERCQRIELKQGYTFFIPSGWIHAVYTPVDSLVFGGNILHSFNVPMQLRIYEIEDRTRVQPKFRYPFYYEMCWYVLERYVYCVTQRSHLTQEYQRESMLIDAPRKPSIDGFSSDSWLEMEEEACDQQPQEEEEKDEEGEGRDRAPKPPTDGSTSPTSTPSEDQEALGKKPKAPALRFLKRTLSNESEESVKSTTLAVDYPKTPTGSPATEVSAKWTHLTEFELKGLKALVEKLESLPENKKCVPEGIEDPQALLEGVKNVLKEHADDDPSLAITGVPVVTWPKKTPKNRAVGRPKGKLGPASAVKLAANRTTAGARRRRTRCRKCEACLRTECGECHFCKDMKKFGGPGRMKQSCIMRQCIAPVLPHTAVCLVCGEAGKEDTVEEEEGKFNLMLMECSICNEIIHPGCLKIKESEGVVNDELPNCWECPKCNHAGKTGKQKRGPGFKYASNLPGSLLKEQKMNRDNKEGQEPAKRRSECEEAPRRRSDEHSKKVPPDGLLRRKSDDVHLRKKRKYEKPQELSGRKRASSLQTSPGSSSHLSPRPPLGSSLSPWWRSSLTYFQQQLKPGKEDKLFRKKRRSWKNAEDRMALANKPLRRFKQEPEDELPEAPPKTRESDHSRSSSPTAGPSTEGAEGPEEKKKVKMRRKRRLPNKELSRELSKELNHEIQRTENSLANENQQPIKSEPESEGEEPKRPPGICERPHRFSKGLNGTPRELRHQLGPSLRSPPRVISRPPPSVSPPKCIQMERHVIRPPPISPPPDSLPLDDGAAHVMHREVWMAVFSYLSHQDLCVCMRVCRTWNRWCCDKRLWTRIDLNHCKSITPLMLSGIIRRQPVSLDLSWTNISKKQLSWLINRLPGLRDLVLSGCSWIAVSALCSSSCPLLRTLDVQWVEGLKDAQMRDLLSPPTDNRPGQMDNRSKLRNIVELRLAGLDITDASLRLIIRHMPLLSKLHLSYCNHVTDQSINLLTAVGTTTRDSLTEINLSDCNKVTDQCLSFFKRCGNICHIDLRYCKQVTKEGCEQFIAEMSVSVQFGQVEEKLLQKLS

Structure (SMILES) | IC50 [pM]
O=S(=O)(c1ccc(C2CC2)cc1)N1CCN=C1N1CCN(C2CCC2)CC1 [Example 34, 1-cyclobutyl-4-[1-(4-cyclopropylphenyl)sulfonyl-4,5-dihydroimidazol-2-yl]piperazine] | 58
N#Cc1cccc(-c2ccc(S(=O)(=O)N3CCN=C3N3CCN(C4CCC4)CC3)cc2)c1 [Example 13] | 145
CC(C)c1ccc(S(=O)(=O)N2CCN=C2N2CCN(C3CC(F)C3)CC2)cc1 (stereo not drawn) [Example 40, 1-(3-fluorocyclobutyl)-4-[1-(4-isopropylphenyl)sulfonyl-4,5-dihydroimidazol-2-yl]piperazine] | 391
O=C(c1ccc(Cl)cc1)N1CCN=C1N1CCN(C2CCC2)CC1 [Example 88, (4-chlorophenyl)-[2-(4-cyclobutylpiperazin-1-yl)-4,5-dihydroimidazol-1-yl]methanone] | 2210
CC(C)c1ccc(S(=O)(=O)N2CCN=C2N2CCN(C3CCC3)CC2)cc1 [Example 31, 1-cyclobutyl-4-(1-((4-isopropylphenyl)sulfonyl)-4,5-dihydro-1H-imidazol-2-yl)piperazine] | 43
CCN1CCN(C2=N[C@@H](C)CN2S(=O)(=O)c2ccc(C(C)C)cc2)CC1 [Example 44, (S)-1-ethyl-4-[1-(4-isopropylphenyl)sulfonyl-4-methyl-4,5-dihydroimidazol-2-yl]piperazine] | 519
CC(C)c1ccc(S(=O)(=O)N2CCN=C2N2CCN(C3CCC3)C(C)C2)cc1 (stereo not drawn) [Example 37, 1-cyclobutyl-4-[1-(4-isopropylphenyl)sulfonyl-4,5-dihydroimidazol-2-yl]-2-methyl-piperazine] | 689
O=C(c1ccccc1)N1CCN=C1N1CCN(C2CCC2)CC1 [Example 82, [2-(4-cyclobutylpiperazin-1-yl)-4,5-dihydroimidazol-1-yl]-phenyl-methanone] | 7000
O=S(=O)(c1ccc(-c2ccncc2)cc1)N1CCN=C1N1CCN(C2CCC2)CC1 [Example 18, 1-cyclobutyl-4-[1-[4-(4-pyridyl)phenyl]sulfonyl-4,5-dihydroimidazol-2-yl]piperazine] | 95
O=C(c1cccc(Cl)c1)N1CCN=C1N1CCN(C2CCC2)CC1 [Example 86, (3-chlorophenyl)-[2-(4-cyclobutylpiperazin-1-yl)-4,5-dihydroimidazol-1-yl]methanone] | 2040
COc1ccccc1C(=O)N1CCN=C1N1CCN(C2CCC2)CC1 [Example 91, [2-(4-cyclobutylpiperazin-1-yl)-4,5-dihydroimidazol-1-yl]-(2-methoxyphenyl)methanone] | 11500
O=C(c1ccccc1Cl)N1CCN=C1N1CCN(C2CCC2)CC1 [Example 87, (2-chlorophenyl)-[2-(4-cyclobutylpiperazin-1-yl)-4,5-dihydroimidazol-1-yl]methanone] | 2220
CC(C)c1ccc(S(=O)(=O)N2CC3(CCCC3)N=C2N2CCN(C3CCC3)CC2)cc1 [Example 45, 2-(4-cyclobutylpiperazin-1-yl)-3-(4-isopropylphenyl)sulfonyl-1,3-diazaspiro[4.4]non-1-ene] | 49
COc1cccc(-c2ccc(S(=O)(=O)N3CCN=C3N3CCN(C4CCC4)CC3)cc2)c1 [Example 2, 1-cyclobutyl-4-[1-[4-(3-methoxyphenyl)phenyl]sulfonyl-4,5-dihydroimidazol-2-yl]piperazine] | 98
CC1CCC(N2CCN(C3=NCCN3S(=O)(=O)c3ccc(C(C)C)cc3)CC2)C1 (stereo not drawn) [Example 94, 1-[1-(4-isopropylphenyl)sulfonyl-4,5-dihydroimidazol-2-yl]-4-(3-methylcyclopentyl)piperazine] | 1420
CC(=O)Nc1ccc(S(=O)(=O)N2CCN=C2N2CCN(C3CCC3)CC2)cc1Cl [Example 81, N-[2-chloro-4-[[2-(4-cyclobutylpiperazin-1-yl)-4,5-dihydroimidazol-1-yl]sulfonyl]phenyl]acetamide] | 127
COc1ccc(-c2ccc(S(=O)(=O)N3CCN=C3N3CCN(C4CCC4)CC3)cc2)cc1 [Example 3, 1-cyclobutyl-4-[1-[4-(4-methoxyphenyl)phenyl]sulfonyl-4,5-dihydroimidazol-2-yl]piperazine] | 80
O=S(=O)(c1ccc(-c2ccc(O)cc2)cc1)N1CCN=C1N1CCN(C2CCC2)CC1 [Example 17, 4-[4-[[2-(4-cyclobutylpiperazin-1-yl)-4,5-dihydroimidazol-1-yl]sulfonyl]phenyl]phenol] | 21
Cc1cccc(-c2ccc(S(=O)(=O)N3CCN=C3N3CCN(C4CCC4)CC3)cc2)c1 [Example 9, 1-cyclobutyl-4-[1-[4-(m-tolyl)phenyl]sulfonyl-4,5-dihydroimidazol-2-yl]piperazine] | 74
O=S(=O)(c1ccc(-c2ccc(C(F)(F)F)cc2)cc1)N1CCN=C1N1CCN(C2CCC2)CC1 [Example 12, 1-cyclobutyl-4-[1-[4-[4-(trifluoromethyl)phenyl]phenyl]sulfonyl-4,5-dihydroimidazol-2-yl]piperazine] | 380

Other lines, results leading:

IC50 [pM] | Structure (SMILES)
12800 | CCN1CCN(C2=NCCN2S(=O)(=O)c2c(F)cccc2F)CC1 [Example 108, 1-[1-(2,6-difluorophenyl)sulfonyl-4,5-dihydroimidazol-2-yl]-4-ethyl-piperazine]
50 | COc1ccccc1-c1ccc(S(=O)(=O)N2CCN=C2N2CCN(C3CCC3)CC2)cc1 [Example 24, 1-cyclobutyl-4-[1-[4-(2-methoxyphenyl)phenyl]sulfonyl-4,5-dihydroimidazol-2-yl]piperazine]
13300 | CCN1CCN(C2=NCCN2S(=O)(=O)c2cccc3nonc23)CC1 [Example 120, 4-[[2-(4-ethylpiperazin-1-yl)-4,5-dihydroimidazol-1-yl]sulfonyl]-2,1,3-benzoxadiazole]
9060 | CCN1CCN(C2=NCCN2S(=O)(=O)c2cccc(Cl)c2)CC1 [Example 113, 1-[1-(3-chlorophenyl)sulfonyl-4,5-dihydroimidazol-2-yl]-4-ethyl-piperazine]
998 | CCN1CCN(C2=NCCN2S(=O)(=O)c2ccc3ccccc3c2)CC1 [Example 110, 1-ethyl-4-[1-(2-naphthylsulfonyl)-4,5-dihydroimidazol-2-yl]piperazine]
37 | O=S(=O)(c1ccc(-c2ccccc2O)cc1)N1CCN=C1N1CCN(C2CCC2)CC1 [Example 15, 2-[4-[[2-(4-cyclobutylpiperazin-1-yl)-4,5-dihydroimidazol-1-yl]sulfonyl]phenyl]phenol]
3570 | CCN1CCN(C2=NCCN2S(=O)(=O)c2cccc(OC)c2)CC1 [Example 115, 1-ethyl-4-[1-(3-methoxyphenyl)sulfonyl-4,5-dihydroimidazol-2-yl]piperazine]
146 | Cc1cccc(S(=O)(=O)N2CCN=C2N2CCN(C3CCC3)CC2)c1 [Example 59, 1-cyclobutyl-4-[1-(m-tolylsulfonyl)-4,5-dihydroimidazol-2-yl]piperazine]
3310 | CCN1CCN(C2=NCCN2S(=O)(=O)c2ccc(OC(F)F)cc2)CC1 [Example 105, 1-[1-[4-(difluoromethoxy)phenyl]sulfonyl-4,5-dihydroimidazol-2-yl]-4-ethyl-piperazine]
48 | O=S(=O)(c1ccc(-c2ccccc2)cc1)N1CCN=C1N1CCN(C2CCC2)CC1 [Example 14, 1-cyclobutyl-4-[1-(4-phenylphenyl)sulfonyl-4,5-dihydroimidazol-2-yl]piperazine]
